Patent US11897868B2, “Heterocyclic inhibitors of PCSK9” (CARDIO THERAPEUTICS PTY LTD, priority 2017, dated 2024)

molecular target: T1, PCSK9 and the LDL receptor (Homo sapiens, UniProt Q8NBP7); assay: CircuLex PCSK9-LDLR in vitro binding assay; conditions: His-tagged PCSK9 wild type, 8 point concentration curves, absorbance 450 nm and 540 nm, read-out: Inhibition of PCSK9-LDLR binding
T1 construct: purchased CircuLex CY-8150
Procedure: Compounds were assayed for their ability to inhibit the binding between PCSK9 and the LDL receptor using a CircuLex PCSK9-LDLR in vitro binding assay kit (Catalog #CY-8150. The procedure employed the reagents and buffers included in the kit as follows.
88 μL of 1× reaction buffer were placed into each well. 5 μL of test compounds in 20% DMSO were added into each well. 10 mM solutions of test compounds in DMSO were diluted by 3-fold series to give 8 point concentration curves. The compounds were then diluted 20-fold with the reaction buffer. To each well was then added 7 μL of His-tagged PCSK9 wild type solution (1000 ng/mL) into each well. The plate was then covered with a plate sealer and incubated at room temperature for 3 hours, shaking at 300 rpm on an orbital microplate shaker. The test solutions were washed 4 times with 350 μL wash buffer. 100 μL of biotinylated anti-His-tag monoclonal antibody was added to each well. The plate was covered with a plate sealer, and incubated at room temperature for 1 hour, shaking at 300 rpm. The test solutions were washed 4 times with 350 μL wash buffer. 100 μL of HRP-conjugated streptavidin was added to each well. The plate was covered with a plate sealer, and incubated at room temperature for 20 min, shaking at 300 rpm.
The test solutions were washed 4 times with 350 μL wash buffer. 100 μL of substrate reagent were added into each well. The plate was covered with a plate sealer, and incubated at room temperature for 15 min, shaking at 300 rpm. Finally, 100 μL of the stop solution was added to each well in the same order as the previously added substrate reagent. Absorbance was measured at 450 nm and 540 nm and IC50 curves were plotted.

T1 sequence (Q8NBP7 153-692): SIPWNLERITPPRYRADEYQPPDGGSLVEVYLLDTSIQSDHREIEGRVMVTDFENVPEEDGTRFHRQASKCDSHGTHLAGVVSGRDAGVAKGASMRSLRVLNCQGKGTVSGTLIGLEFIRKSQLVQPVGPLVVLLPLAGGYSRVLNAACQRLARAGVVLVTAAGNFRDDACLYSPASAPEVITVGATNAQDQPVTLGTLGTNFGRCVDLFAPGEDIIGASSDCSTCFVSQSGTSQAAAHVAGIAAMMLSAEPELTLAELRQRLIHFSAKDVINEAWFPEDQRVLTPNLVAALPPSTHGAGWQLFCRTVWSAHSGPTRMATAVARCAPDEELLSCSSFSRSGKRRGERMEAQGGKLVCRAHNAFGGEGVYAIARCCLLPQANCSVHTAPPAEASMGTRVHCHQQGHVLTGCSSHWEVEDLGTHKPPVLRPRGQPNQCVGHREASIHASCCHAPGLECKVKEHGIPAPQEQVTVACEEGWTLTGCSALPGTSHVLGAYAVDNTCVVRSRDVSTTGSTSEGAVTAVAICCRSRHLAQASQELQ
T1 sequence (Q8NBP7 31-152 partner limits assumed): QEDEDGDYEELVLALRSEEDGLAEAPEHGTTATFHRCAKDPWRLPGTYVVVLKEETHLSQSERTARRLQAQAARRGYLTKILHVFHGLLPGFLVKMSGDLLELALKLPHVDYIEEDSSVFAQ

Structure (SMILES) | IC50
Cc1cn(-c2cc(/C=C/C(=O)O)cc(NC(=O)c3ccc(C)c(Nc4nccc(-c5ccccc5)n4)c3)c2)cn1 [Example 8, (E)-3-(3-(4-methyl-1H-imidazol-1-yl)-5-(4-methyl-3-((4-phenylpyrimidin-2-yl)amino)benzamido)phenyl)acrylic Acid] | 10 to 100 µM
Cc1cn(-c2cc(NC(=O)c3ccc(C)c(Nc4nccc(-c5ccccc5)n4)c3)cc(N3CCNCC3)c2)cn1 [Example 5, 4-methyl-N-(3-(4-methyl-1H-imidazol-1-yl)-5-(piperazin-1-yl)phenyl)-3-((4-phenylpyrimidin-2-yl)amino)benzamide] | 0.1 to 1 µM
CCCCc1cc(NC(=O)c2ccc(C)c(Nc3nccc(-c4ccccc4)n3)c2)cc(-n2cnc(C)c2)c1 [Example 11, N-(3-butyl-5-(4-methyl-1H-imidazol-1-yl)phenyl)-4-methyl-3-((4-phenylpyrimidin-2-yl)amino)benzamide] | 1 to 10 µM
CC(=O)Nc1ccnc(Nc2cc(C(=O)Nc3cc(-n4cnc(C)c4)cc(C(F)(F)F)c3)ccc2C)n1 [Example 16, 3-((4-acetamidopyrimidin-2-yl)amino)-4-methyl-N-(3-(4-methyl-1H-imidazol-1-yl)-5-(trifluoromethyl)phenyl)benzamide] | 10 to 100 µM
Cc1cn(-c2cc(NC(=O)c3ccc(C)c(Nc4nccc(-c5ccccn5)n4)c3)cc(C(F)(F)F)c2)cn1 [Example 1, 4-methyl-N-(3-(4-methyl-1H-imidazol-1-yl)-5-(trifluoromethyl)phenyl)-3-((4-(pyridin-2-yl)pyrimidin-2-yl)amino)benzamide] | 10 to 100 µM
Cc1cn(-c2cc(NC(=O)c3ccc(C)c(Nc4nccc(-c5ccncc5)n4)c3)cc(C(F)(F)F)c2)cn1 [Example 2, 4-methyl-N-(3-(4-methyl-1H-imidazol-1-yl)-5-(trifluoromethyl)phenyl)-3-((4-(pyridin-4-yl)pyrimidin-2-yl)amino)benzamide] | 1 to 10 µM
Cc1cn(-c2cc(NC(=O)c3ccc(C)c(Nc4nccc(-c5ccccc5)n4)c3)cc(N3CCN(C)CC3)c2)cn1 [Example 6, 4-methyl-N-(3-(4-methyl-1H-imidazol-1-yl)-5-(4-methylpiperazin-1-yl)phenyl)-3-((4-phenylpyrimidin-2-yl)amino)benzamide] | 0.1 to 1 µM
Cc1cn(-c2cc(CCC(=O)O)cc(NC(=O)c3ccc(C)c(Nc4nccc(-c5ccccc5)n4)c3)c2)cn1 [Example 9, 3-(3-(4-methyl-1H-imidazol-1-yl)-5-(4-methyl-3-((4-phenylpyrimidin-2-yl)amino)benzamido)phenyl)propanoic Acid] | 1 to 10 µM
Cc1cn(-c2cc(NC(=O)c3ccc(C)c(Oc4ccccc4)c3)cc(C(F)(F)F)c2)cn1 [Example 13, 4-methyl-N-(3-(4-methyl-1H-imidazol-1-yl)-5-(trifluoromethyl)phenyl)-3-phenoxybenzamide] | 10 to 100 µM
Cc1cn(-c2cc(NC(=O)c3ccc(C)c(Nc4nccc(-c5ccccc5)n4)c3)cc(C(F)(F)F)c2)cn1 [Example 3, 4-methyl-N-(3-(4-methyl-1H-imidazol-1-yl)-5-(trifluoromethyl)phenyl)-3-((4-phenylpyrimidin-2-yl)amino)benzamide] | 1 to 10 µM
Cc1cn(-c2cc(NS(=O)(=O)c3ccc(C)c(Nc4nccc(-c5ccccc5)n4)c3)cc(C(F)(F)F)c2)cn1 [Example 15, 4-methyl-N-(3-(4-methyl-1H-imidazol-1-yl)-5-(trifluoromethyl)phenyl)-3-((4-phenylpyrimidin-2-yl)amino)benzenesulfonamide] | 10 to 100 µM
Cc1cn(-c2cc(NC(=O)c3ccc(C)c(Nc4ncccn4)c3)cc(C(F)(F)F)c2)cn1 [Example 4, 4-methyl-N-(3-(4-methyl-1H-imidazol-1-yl)-5-(trifluoromethyl)phenyl)-3-(pyrimidin-2-ylamino)benzamide] | 10 to 100 µM
Cc1ccc(C(=O)Nc2cc(-n3cnc(C)c3)cc(C(F)(F)F)c2)cc1 [Example 12, 4-methyl-N-(3-(4-methyl-1H-imidazol-1-yl)-5-(trifluoromethyl)phenyl)benzamide] | 10 to 100 µM

Second part, the compound after the results:

IC50 | Structure (SMILES)
10 to 100 µM | Cc1cn(-c2cc(CN3CCCC[C@H]3C(=O)O)cc(NC(=O)c3ccc(C)c(Nc4nccc(-c5ccc(F)cc5)n4)c3)c2)cn1 [Example 20, (S)-1-(3-(3-((4-(4-fluorophenyl)pyrimidin-2-yl)amino)-4-methylbenzamido)-5-(4-methyl-1H-imidazol-1-yl)benzyl)piperidine-2-carboxylic Acid]
1 to 10 µM | Cc1cn(-c2cc(NC(=O)c3ccc(C)c(C(=O)c4cccc(C#N)c4)c3)cc(N3CCN(C)CC3)c2)cn1 [Example 28, 3-(3-cyanobenzoyl)-4-methyl-N-(3-(4-methyl-1H-imidazol-1-yl)-5-(4-methylpiperazin-1-yl)phenyl)benzamide]
1 to 10 µM | Cc1cn(-c2cc(CN3CCCC[C@H]3C(N)=O)cc(NC(=O)c3ccc(C)c(Nc4nccc(-c5ccc(F)cc5)n4)c3)c2)cn1 [Example 21, (S)-1-(3-(3-((4-(4-fluorophenyl)pyrimidin-2-yl)amino)-4-methylbenzamido)-5-(4-methyl-1H-imidazol-1-yl)benzyl)piperidine-2-carboxamide]
1 to 10 µM | Cc1cn(-c2cc(N3C(=O)c4cc(C)c(Nc5nccc(-c6cccnc6)n5)cc4C3=O)cc(C(F)(F)F)c2)cn1 [Example 18, 5-methyl-2-(3-(4-methyl-1H-imidazol-1-yl)-5-(trifluoromethyl)phenyl)-6-((4-(pyridin-3-yl)pyrimidin-2-yl)amino)isoindoline-1,3-dione]
0.1 to 1 µM | Cc1cn(-c2cc(CN3CCC[C@H](N)C3)cc(NC(=O)c3ccc(C)c(Nc4nccc(-c5ccc(F)cc5)n4)c3)c2)cn1 [Example 19, (S)—N-(3-((3-aminopiperidin-1-yl)methyl)-5-(4-methyl-1H-imidazol-1-yl)phenyl)-3-((4-(4-fluorophenyl)pyrimidin-2-yl)amino)-4-methylbenzamide]
10 to 100 µM | Cc1ccc(C(=O)Nc2cc(N3CCN(C)CC3)cc(-n3cnc(C)c3)c2)cc1 [Example 24, 4-methyl-N-(3-(4-methyl-1H-imidazol-1-yl)-5-(4-methylpiperazin-1-yl)phenyl)benzamide]
1 to 10 µM | Cc1ccc(C(=O)Nc2cccc(N3CCN(C)CC3)c2)cc1Nc1nccc(-c2ccc(F)cc2)n1 [Example 31, 3-((4-(4-fluorophenyl)pyrimidin-2-yl)amino)-4-methyl-N-(3-(4-methylpiperazin-1-yl)phenyl)benzamide]

same assay, conditions: His-tagged PCSK9 wild type; 8 point concentration curves; absorbance 450 nm and 540 nm; IC50 curves

Structure (SMILES) | Inhibition of PCSK9-LDLR binding
Cc1cn(-c2cc(NS(=O)(=O)c3ccc(C)c(Nc4nccc(-c5ccc(F)cc5)n4)c3)cc(N3CCN(C)CC3)c2)cn1 [Example 22, 3-((4-(4-fluorophenyl)pyrimidin-2-yl)amino)-4-methyl-N-(3-(4-methyl-1H-imidazol-1-yl)-5-(4-methylpiperazin-1-yl)phenyl)benzenesulfonamide] | * (Starred values refer to levels of inhibition of binding by less than 35% at the highest concentration tested, due either to solubility limitations or dynamic range limitations of the assay.)
Cc1cn(-c2cc(NC(=O)c3ccc(C)c(Oc4ccccc4)c3)cc(N3CCN(C)CC3)c2)cn1 [Example 25, 4-methyl-N-(3-(4-methyl-1H-imidazol-1-yl)-5-(4-methylpiperazin-1-yl)phenyl)-3-phenoxybenzamide] | * (Starred values refer to levels of inhibition of binding by less than 35% at the highest concentration tested, due either to solubility limitations or dynamic range limitations of the assay.)
